Data published in US8501911B2, “Methods of reducing inflammation and mucus hypersecretion” (Biomarck Pharmaceuticals, Ltd, priority 1999, dated 2013).
Residues, ends and D or L forms follow the SMILES beside them. *: point of attachment. Myristoyl = CCCCCCCCCCCCCC(=O)*

Tests used:
[1] = system: human bronchial epithelial cells; assay: Basal (constitutive) mucin secretion by human bronchial epithelial cells; type: cell-based; settings: one hour incubation
Procedure: Mucus secreted from the airway epithelial cells in vitro after stimulation by activators was assessed using an ELISA (antibody capture method) (E. Harlow, D. Lane. “Antibodies: A Laboratory Manual.” New York: Cold Spring Harbor Laboratory Press, 1988), wherein the collected mucus is bound directly to the ELISA plate. Mucus was detected using an antibody raised against monkey airway mucus (Lin et al. Am J Respir Cell Mol Biol 1:41, 1989).
The MANS peptide (100 μM) was also found to decrease constitutive (basal) mucus secretion by one hour incubation. Cells were treated as described above except that no PMA or 8-Br-cGMP was used. […] Results, designated as Results-M-1B, are presented as follows and show the inhibition of basal mucin secretion by human bronchial epithelial cells exposed to the MANS peptide (SEQ ID NO: 1) or a negative control peptide consisting of the same amino acids as the MANS peptide, but in random order (RNS peptide; random N-terminal sequence (SEQ ID NO: 26):
The effect of MA-PSD peptide (1, 10 and 100 μM) on basal mucin secretion was also measured. Cells as described above were incubated for one hour with the MA-PSD peptide (no PMA or 8-Br-cGMP).

NHBE cells = assay: PMA+8-Br-cGMP-induced mucin secretion from NHBE cells (ELISA); type: cell-based, human; settings: pre- and co-incubation with 100 nM PMA+1 μM 8-Br-cGMP (Results-M-1A/M-3A)
Procedure: Peptide Blocking Studies—NHBE cells were preincubated with either the MANS or the RNS peptide (1-100 μM) for 15 min, and then PMA (100 nM)+8-Br-cGMP (1 μM) or UTP (100 μM) was added, and cells were incubated for an additional 15 min or 2 h. respectively. Mucin secretion was measured by ELISA and experimental results are designated as Results-I-2B-1 and Results-I-2B-2, as follows. […]
Measurement of Mucin Secretion by ELISA—Before collection of “base line” and “test” mucin samples, the accumulated mucus at the apical surface of the cells was removed by washing with phosphate-buffered saline, pH 7.2. To collect the base-line secretion, cells were incubated with medium alone, and secreted mucin in the apical medium was collected and reserved. Cells were rested for 24 h and then exposed to medium containing the selected stimulatory and/or inhibitory reagents (or appropriate controls), after which secreted mucin was collected and reserved as the test sample. Incubation times for the base line and the test were the same but varied depending on the test reagent utilized. Both base line and test secretions were analyzed by ELISA using an antibody capture method as known in the art. See, e.g., Harlow et al., Antibodies: A Laboratory Manual, pp. 570-573, Cold Spring Harbor Laboratory, Cold Spring Harbor, N.Y. (1988). The primary antibody for this assay was 17Q2 (Babco, Richmond, Calif.), a monoclonal antibody that reacts specifically with a carbohydrate epitope on human airway mucins. The ratio of test/base-line mucin, which is similar to a “secretory index”, was used to quantify mucin secretion, allowing each culture dish to serve as its own control and thus, minimizing deviation caused by variability among culture wells. Wright et al., Am. J. Physiol. 271, L854-L861 (1996). Levels of mucin secretion were reported as percentage of the medium control.
MARCKS-related Peptides—Both the myristoylated N-terminal sequence (MANS) and the random N-terminal sequence (RNS) peptides were synthesized at Genemed Synthesis, Inc. (San Francisco, Calif.), then purified by high pressure liquid chromatography (>95% pure), and confirmed by mass spectroscopy with each showing one single peak with an appropriate molecular mass. The MANS peptide consisted of sequence identical to the first 24 amino acids of MARCKS, i.e. the myristoylated N-terminal region that mediates MARCKS insertion into membranes, MA-[…] (SEQ ID NO: 1) (where MA=N-terminal myristate chain). The corresponding control peptide (RNS) contained the same amino acid composition as the MANS but arranged in random order, MA-[…] (SEQ ID NO: 26). The presence of the hydrophobic myristate moiety in these synthetic peptides enhances their permeability to the plasma membranes, enabling the peptides to be taken up readily by cells. To determine the effects of these peptides on mucin secretion, cells were preincubated with the peptides for 15 min prior to addition of secretagogues, and mucin secretion was then measured by ELISA.
Antisense Oligonucleotides—MARCKS antisense oligonucleotide and its corresponding control oligonucleotide were synthesized at Biognostik GmbH (Gottingen, Germany). NHBE cells were treated with 5 μM antisense or control oligonucleotide apically for 3 days (in the presence of 2 μg/ml lipofectin for the first 24 h). Cells were then incubated with secretagogues, and mucin secretion was measured by ELISA. Total RNA and protein were isolated from treated cells. MARCKS mRNA was assessed by Northern hybridization according to conventional procedures using human MARCKS cDNA as a probe. MARCKS protein level was determined by Western blot using purified anti-MARCKS IgG1 (clone 2F12) as the primary detection antibody.
The effect on mucus secretion of a myristoylated peptide containing the first 24 amino acids of the human MARCKS protein (MANS; myristoylated N-terminal sequence; SEQ ID NO: ) was tested. Cultured normal human bronchial epithelial cells as described above were used. […]

[2] = target: T1, cGMP-dependent protein kinase (PKG) (Homo sapiens, UniProt Q13976); assay: PKG activity in NHBE cells; type: cell-based; settings: 100 μM
T1 construct: endogenous in cells; host or cells: NHBE cells
T1 sequence (Q13976 1-671): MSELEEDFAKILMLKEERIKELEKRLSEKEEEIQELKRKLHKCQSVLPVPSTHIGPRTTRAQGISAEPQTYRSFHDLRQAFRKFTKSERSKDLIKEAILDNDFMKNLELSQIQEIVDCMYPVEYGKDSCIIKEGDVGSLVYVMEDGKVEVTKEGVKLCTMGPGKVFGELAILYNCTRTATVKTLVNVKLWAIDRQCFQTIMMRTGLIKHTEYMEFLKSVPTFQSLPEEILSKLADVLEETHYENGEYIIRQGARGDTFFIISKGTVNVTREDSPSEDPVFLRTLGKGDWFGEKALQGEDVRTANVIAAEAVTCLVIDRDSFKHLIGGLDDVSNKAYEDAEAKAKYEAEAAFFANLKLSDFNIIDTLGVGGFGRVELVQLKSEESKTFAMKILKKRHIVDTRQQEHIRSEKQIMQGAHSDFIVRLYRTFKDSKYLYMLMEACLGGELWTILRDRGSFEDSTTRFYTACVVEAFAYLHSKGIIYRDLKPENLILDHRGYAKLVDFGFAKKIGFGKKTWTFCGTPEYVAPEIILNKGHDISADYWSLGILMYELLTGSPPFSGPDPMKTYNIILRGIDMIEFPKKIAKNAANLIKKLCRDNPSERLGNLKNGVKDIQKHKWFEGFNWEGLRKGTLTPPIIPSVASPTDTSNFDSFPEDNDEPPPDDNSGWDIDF
Procedure: Phosphorylation of MARCKS by PMA was attenuated by Calphostin C (500 nM). NHBE cells also contained substantial amounts of cGMP-dependent protein kinase type 1α (PKG-1α) activity, which was localized to the cytosolic fraction. […] In addition, the phosphorylation of MARCKS induced by PMA was reversed by incubation with 8-Br-cGMP (10 μM).

Structure (SMILES)	Basal mucin secretion level relative to control ([1]; peptide 1 μM) [%]	Basal mucin secretion level relative to control ([1]; peptide 10 μM) [%]	Basal mucin secretion level relative to control ([1]; peptide 100 μM, no PMA or 8-Br-cGMP) [%]	Mucin secretion level relative to media control (NHBE cells; peptide 1 μM) [%]	Mucin secretion level relative to media control (NHBE cells; peptide 10 μM) [%]	Mucin secretion level relative to media control (NHBE cells; peptide 100 μM) [%]	PKG activity [2]
CCCCCCCCCCCCCC(=O)N[C@@H](CCCCN)C(=O)N[C@@H](CCCCN)C(=O)N[C@@H](CCCCN)C(=O)N[C@@H](CCCCN)C(=O)N[C@@H](CCCCN)C(=O)N[C@@H](CCCNC(=N)N)C(=O)N[C@@H](Cc1ccccc1)C(=O)N[C@@H](CO)C(=O)N[C@@H](Cc1ccccc1)C(=O)N[C@@H](CCCCN)C(=O)N[C@@H](CCCCN)C(=O)N[C@@H](CO)C(=O)N[C@@H](Cc1ccccc1)C(=O)N[C@@H](CCCCN)C(=O)N[C@@H](CC(C)C)C(=O)N[C@@H](CO)C(=O)NCC(=O)N[C@@H](Cc1ccccc1)C(=O)N[C@@H](CO)C(=O)N[C@@H](Cc1ccccc1)C(=O)N[C@@H](CCCCN)C(=O)N[C@@H](CCCCN)C(=O)N[C@@H](CC(N)=O)C(=O)N[C@@H](CCCCN)C(=O)N[C@@H](CCCCN)C(=O)O [MA-PSD peptide] (Myristoyl-KKKKKRFSFKKSFKLSGFSFKKNKK-OH; C-terminus assumed)	102	91	285	226	316	191	
CCCC(=O)Nc1nc2c(ncn2[C@@H]2O[C@@H]3COP(=O)(O)O[C@H]3[C@H]2OC(=O)CCC)c(=O)[nH]1 [dibutryl cGMP]							increased
